The target in the assay is Angiotensin-converting enzyme (Homo sapiens, UniProt P12821). Description: Inhibitory activity against angiotensin converting enzyme (ACE). Format: functional.
A word on the IC50: it is the concentration that gives 50% inhibition. A high value points to a need for much substance. On to `O=C(O)[C@@H]1CCCN1C(=O)CP(=O)(O)O`, for which half-maximal inhibition (IC50) was put at 8.32 µM.

`O=C(O)[C@@H]1CC2(CN1C(=O)CP(=O)(O)CCCCc1ccccc1)SCCS2`: the IC50 was 0.00398 µM. `NCCCC[C@H](OP(=O)(O)CCCCc1ccccc1)C(=O)N1C[C@H](c2ccccc2)C[C@H]1C(=O)O` showed an IC50 of 0.339 µM. `NCCCC[C@H](OP(=O)(O)CCCCc1ccccc1)C(=O)N(CC(=O)O)c1ccccc1` had an IC50 of 0.00107 µM.

The compound `NCCCC[C@H](OP(=O)(O)CCCCc1ccccc1)C(=O)N1c2ccccc2C[C@H]1C(=O)O` gave an IC50 of 0.000295 µM. As for `NCCCC[C@H](OP(=O)(O)CCCCc1ccccc1)C(=O)N1C[C@@H](Cc2ccccc2)C[C@H]1C(=O)O`, the IC50 is 0.000891 µM. Under `NCCCC[C@H](OP(=O)(O)CCCCc1ccccc1)C(=O)N(CC(=O)O)C1CCCCC1` stands 0.000295 µM.

With `NCCCC[C@H](OP(=O)(O)CCCCc1ccccc1)C(=O)N1C[C@@H](C2CCCCC2)C[C@H]1C(=O)O`, the midpoint of inhibition, the IC50, lay at 0.00049 µM. Under `NCCCC[C@H](OP(=O)(O)CCCCc1ccccc1)C(=O)N1C[C@H](C2CCCCC2)C[C@H]1C(=O)O` stands 0.00324 µM.

As for `CS[C@@H]1C[C@@H](C(=O)O)N(C(=O)[C@H](CCCCN)OP(=O)(O)CCCCc2ccccc2)C1`, the IC50 is 0.000525 µM. With `O=C(O)[C@H]1CCCN1C(=O)CCS`, the IC50 was 1820 µM. Compound `O=C(O)CCC(=O)NCC(=O)O` had an IC50 of 2000 µM. Under `O=C(O)[C@@H]1C=CCN1C(=O)CCS` stands 0.646 µM. Under `O=C(O)CCc1cc(O)c2n(c1=O)[C@H](C(=O)O)CC2` stands 0.457 µM; under `NCCC[C@H](NC(CCc1ccccc1)C(=O)O)C(=O)N1CCC[C@H]1C(=O)O` (stereo not given in full), 0.00219 µM.

On to `O=C(CCS)N[C@@H](CS)C(=O)O`, for which it took 67.6 µM to reach half-maximal inhibition (IC50). Regarding `O=C(O)[C@@H]1CCCN1CCCS`, it took 240 µM to reach half-maximal inhibition (IC50). `C[C@H](NP(=O)(O)CCc1ccccc1)C(=O)N1CCC[C@H]1C(=O)O` had an IC50 of 0.00708 µM.

For the compound `CC(C)C[C@H](NC(=O)CCC(=O)O)C(=O)O`, the IC50 was 617 µM.

Turning to `O=C(NC(CCc1ccccc1)P(=O)(O)CC(=O)N1CCC[C@H]1C(=O)O)c1ccccc1` (stereo not given in full), the midpoint of inhibition, the IC50, lay at 0.0724 µM. Then `N[C@@H](Cc1ccccc1)C(=O)N[C@H](CCC(=O)N1[C@H](C(=O)O)C[C@@H]2CCCC[C@@H]21)C(=O)O`, with 0.219 µM; and `O=C(O)CCC(=O)N1CCC[C@H]1C(=O)O`, with 33.1 µM; and `NCCCCC(NC(=O)OCc1ccccc1)C(=O)N[C@H](CCC(=O)N1c2ccccc2C[C@H]1C(=O)O)C(=O)O` (stereo not given in full), with 2.51 µM. Then `O=C(O)CCn1c(=O)n2n(c1=O)[C@H](C(=O)O)C=CC2`, with 0.001 µM; and `CC(C)[C@H](NC(=O)CCC(=O)O)C(=O)O`, with 1100 µM; and `O=C(NC(Cc1ccccc1)CP(=O)(O)CC(=O)N1CCC[C@H]1C(=O)O)c1ccccc1` (stereo not given in full), with 0.01 µM. On to `NC(Cc1ccccc1)C(=O)N[C@H](CCC(=O)N1[C@H](C(=O)O)C[C@@H]2CCCC[C@@H]21)C(=O)O` (stereo not given in full), for which the IC50 was 0.1 µM.

The compound `O=C(CS)N[C@@H](Cc1c[nH]cn1)C(=O)O` had an IC50 of 257 µM. Under `O=C(CCS)N[C@@H](Cc1cnc[nH]1)C(=O)O` stands 229 µM; under `C[C@H](NC(CCCNC(=O)OCc1ccccc1)C(=O)O)C(=O)N1CCC[C@H]1C(=O)O` (stereo not given in full), 0.00288 µM. `CC(C)(C)OC(=O)[C@@H]1CCCN1C(=O)CCS` had an IC50 of 38.9 µM. On to `C[C@@H]1CCCC(NC(CCc2ccccc2)C(=O)O)C(=O)N1CC(=O)O` (stereo not given in full), for which the IC50 was 0.00302 µM. `CCN(C[C@H](CCc1ccccc1)C(=O)O)C(=O)N1Cc2ccccc2C[C@H]1C(=O)O` gave an IC50 of 0.00646 µM.

With `CC(C(=O)O)C1CCCCC(CS)C1=O` (stereo not given), the half-maximal inhibitory concentration (IC50) was 0.0525 µM. Under `O=C(CCS)N[C@@H](Cc1ccccc1)C(=O)O` stands 0.427 µM; under `O=C(CS)N[C@@H](Cc1c[nH]c2ccccc12)C(=O)O`, 0.759 µM; under `C[C@H](NC(C(=O)O)C1CCCN1C(=O)c1ccccc1)C(=O)N1CCC[C@H]1C(=O)O` (stereo not given in full), 0.00288 µM. As for `O=C(O)[C@@H]1CCCN1C(=O)CCP(=O)(O)O`, half-maximal inhibition (IC50) was put at 47.9 µM. The compound `NCCCC[C@H](OP(=O)(O)CCCCc1ccccc1)C(=O)N1C[C@H](O)C[C@H]1C(=O)O` gave an IC50 of 0.000871 µM.

Compound `NCCCC[C@H](OP(=O)(O)CCCCc1ccccc1)C(=O)N1CC2(C[C@H]1C(=O)O)SCCS2` had an IC50 of 0.000631 µM. The compound `NCCCC[C@H](OP(=O)(O)CCCCc1ccccc1)C(=O)N1C[C@@H](Sc2ccccc2)C[C@H]1C(=O)O` gave an IC50 of 0.000525 µM.

In turn, `NCCCC[C@H](OP(=O)(O)CCCCc1ccccc1)C(=O)N1C[C@@H](c2ccccc2)C[C@H]1C(=O)O` gave an IC50 of 0.000132 µM.

`NCCCC[C@H](OP(=O)(O)CCCCc1ccccc1)C(=O)N1C[C@@H](O)C[C@H]1C(=O)O` had an IC50 of 0.0158 µM.

In the case of `NCCCC[C@H](OP(=O)(O)CCCCc1ccccc1)C(=O)N(CC(=O)O)c1ccc2c(c1)OCO2`, 0.000115 µM corresponded to half-maximal inhibition (IC50). Then `COc1ccc(N(CC(=O)O)C(=O)[C@H](CCCCN)OP(=O)(O)CCCCc2ccccc2)cc1OC`, with 0.000288 µM. Then `C[C@H](CC(CCc1ccccc1)C(=O)O)C(=O)N1c2ccccc2C[C@H]1C(=O)O` (stereo not given in full), with 0.00479 µM; and `NCCCCC(N)C(=O)N[C@H](CCC(=O)N1[C@H](C(=O)O)C[C@@H]2CCCC[C@@H]21)C(=O)O` (stereo not given in full), with 0.012 µM. Then `NCCCC[C@H](OP(=O)(O)CCCCc1ccccc1)C(=O)N1C[C@H](Sc2ccccc2)C[C@H]1C(=O)O`, with 0.000776 µM; and `O=C(O)[C@@H]1CCCN1C(=O)C1CCCC1S` (stereo not given in full), with 0.0646 µM; and `CS[C@H]1C[C@@H](C(=O)O)N(C(=O)[C@H](CCCCN)OP(=O)(O)CCCCc2ccccc2)C1`, with 0.00191 µM. As for `O=C(O)[C@@H]1CCC(=O)N1CCCS`, the IC50 was 646 µM. Under `CSC1(SC)C[C@@H](C(=O)O)N(C(=O)[C@H](CCCCN)OP(=O)(O)CCCCc2ccccc2)C1` stands 0.00257 µM; under `CC(C)(S)C(=O)N[C@@H](CC(=O)O)C(=O)O`, 3470 µM. As to `C[C@H](NCC(=O)O)C(=O)N1CCC[C@H]1C(=O)O`, the IC50 is 2.4 µM. In the case of `C[C@H](NC(=O)CCC(=O)O)C(=O)O`, inhibition was half-maximal at 1350 µM (IC50). Under `O=C(O)C(CCc1ccccc1)N[C@H]1CCN2CCC[C@@H](C(=O)O)N2C1=O` (stereo not given in full) stands 0.0562 µM; under `C[C@@H](NC(=O)C(S)Cc1ccccc1)C(=O)N1CCC[C@H]1C(=O)O` (stereo not given in full), 0.0501 µM; under `O=C(O)CNC(=O)CCS`, 2.82 µM. Under `CN(CC(=O)O)C(=O)CCS` stands 3.02 µM. Under `C[C@H](NC(CCc1ccccc1)C(=O)O)C(=O)N(CC(=O)O)C1Cc2ccccc2C1` (stereo not given in full) stands 0.0398 µM.

Compound `C[C@H](NC(CCc1ccccc1)C(=O)O)C(=O)N1CC2CCCCC2[C@H]1C(=O)O` (stereo not given in full) showed an IC50 of 0.00219 µM. Then `O=C(N[C@H](CCC(=O)N1[C@H](C(=O)O)C[C@@H]2CCCC[C@@H]21)C(=O)O)C1CCCN1C(=O)OCc1ccccc1` (stereo not given in full), with 0.0151 µM; and `COP(=O)(O)C(CCc1ccccc1)N[C@@H](C)C(=O)N1CCC[C@H]1C(=O)O` (stereo not given in full), with 0.437 µM; and `O=C(O)[C@@H]1CCCN1C(=O)C1CCC1S` (stereo not given in full), with 0.049 µM. Regarding `C[C@H](NC(=O)CCS)C(=O)O`, the IC50 is 0.851 µM. For `C[C@H](NP(=O)(O)O)C(=O)N1CCC[C@H]1C(=O)O`, 0.776 µM corresponded to half-maximal inhibition (IC50). Compound `O=C(NC(Cc1ccccc1)C(=O)N[C@H](CCC(=O)N1c2ccccc2C[C@H]1C(=O)O)C(=O)O)OCc1ccccc1` (stereo not given in full) gave an IC50 of 0.000251 µM. On to `C[C@H](NC(CCc1ccc(O)cc1)C(=O)O)C(=O)N1CCC[C@H]1C(=O)O` (stereo not given in full), for which it took 0.00282 µM to reach half-maximal inhibition (IC50). Take `C[C@H](NC(CCC(=O)Nc1ccccc1)C(=O)O)C(=O)N1CCC[C@H]1C(=O)O` (stereo not given in full): the midpoint of inhibition, the IC50, lay at 0.00525 µM. Compound `C[C@H](CCC(=O)O)C(=O)N1CCC[C@H]1C(=O)O` gave an IC50 of 4.9 µM. In turn, `C[C@H](CC(=O)O)C(=O)N1CCC[C@H]1C(=O)O` gave an IC50 of 10.2 µM.

In the case of `CC(C)[C@H](NC(=O)CCS)C(=O)O`, the IC50 is 1.58 µM.

Take `C[C@@]1(CCS)C(=O)N2CC=C[C@@H](C(=O)O)N2C1=O`: the IC50 was 0.1 µM. `CC[C@@H](C)[C@H](C)C(=O)N[C@@H](Cc1ccccc1)C(=O)O` gave an IC50 of 933 µM.

As to `O=C(O)CCCCCS`, the IC50 was 1100 µM. Then `CCC(C)[C@H](NC(=O)CCC(=O)O)C(=O)O` (stereo not given in full), with 1050 µM; and `C[C@H](NP(=O)(O)OCc1ccccc1)C(=O)N1CCC[C@H]1C(=O)O`, with 0.0407 µM; and `O=C(O)[C@@H]1CCCN2C(=O)C[C@@H](CS)C(=O)N12`, with 0.0708 µM. Under `C[C@H](NC(CCN)C(=O)O)C(=O)N1CCC[C@H]1C(=O)O` (stereo not given in full) stands 0.324 µM; under `O=C(O)CCC(=O)N[C@@H](Cc1ccccc1)C(=O)O`, 550 µM; under `C[C@H](NCCCc1ccccc1)C(=O)N1CCC[C@H]1C(=O)O`, 5.75 µM. Under `C[C@H](NC(CCc1ccccc1)C(N)=O)C(=O)N1CCC[C@H]1C(=O)O` (stereo not given in full) stands 25.7 µM. Take `Cc1ccc(N(CC(=O)O)C(=O)C(C)N)cc1` (stereo not given): the IC50 was 2.57 µM. Under `O=C(O)C[C@H](NC(=O)CS)C(=O)O` stands 77.6 µM; under `O=C(O)CCNC(=O)CCS`, 490 µM; under `O=C(CS)N[C@@H](CS)C(=O)O`, 19.1 µM.

Compound `O=C(N[C@H](CCC(=O)N1CCC[C@H]1C(=O)O)C(=O)O)C1CCCN1C(=O)OCc1ccccc1` (stereo not given in full) gave an IC50 of 2.51 µM.

Consider `C[C@H](NC(CCc1ccccc1)P(=O)(O)O)C(=O)N1CCC[C@H]1C(=O)O` (stereo not given in full), for which the IC50 was 0.0513 µM. The compound `CN(C(=O)CCS)[C@@H](Cc1ccccc1)C(=O)O` had an IC50 of 30.9 µM. The compound `C[C@H](NC(CCC(=O)Nc1ccc(I)cc1)C(=O)O)C(=O)N1CCC[C@H]1C(=O)O` (stereo not given in full) had an IC50 of 0.000229 µM. Turning to `O=C(CCS)OC(Cc1ccccc1)C(=O)O` (stereo not given), half-maximal inhibition (IC50) required 0.708 µM. As to `O=C(O)CCC(=O)CCS`, it took 2.4 µM to reach half-maximal inhibition (IC50). In the case of `O=C(O)CN1C(=O)C(NC(CCc2ccccc2)C(=O)O)CCc2ccccc21` (stereo not given), the IC50 is 0.0017 µM. Regarding `O=C(O)[C@@H]1C=CCn2c(=O)n(CS)c(=O)n21`, the IC50 is 0.708 µM. Then `CC(C)(S)C(=O)N[C@@H](Cc1c[nH]c2ccccc12)C(=O)O`, with 38 µM.

The values above are taken from ChEMBL document CHEMBL1126767, “Three-dimensional quantitative structure-activity relationship of angiotesin-converting enzyme and thermolysin inhibitors. II. A comparison of CoMFA models incorporating molecular orbital fields and desolvation free energies based on active-analog and complementary-receptor-field alignment rules” (J Med Chem, 1993).
